Reference: patent publication US20180200257A1, “METHODS FOR THE TREATMENT OF INFLAMMATORY DISORDERS” (Galapagos NV, priority 2015, published 2018)

What was measured:
Assay type in all cases: in vivo, human
[1] = system: Subjects With Active Crohn's Disease With Evidence of Mucosal Ulceration; assay: Study 3 - CDAI component PRO2 score; conditions: 200 mg
From the text: (§1) Double-Blind, Randomized, Placebo-Controlled, Multi-Centre Study to Investigate the Efficacy and Safety of Compound 1 in Subjects With Active Crohn's Disease With Evidence of Mucosal Ulceration. This is a double-blind, randomized, placebo-controlled, multi-centre Phase 2 study to investigate the efficacy and safety of Compound 1 administered once daily for the treatment of active CD with evidence of mucosal ulceration. The pharmacokinetics (including a PK substudy) and pharmacodynamics of Compound 1 and metabolite in CD will also be characterised. A total of 180 eligible subjects will be randomized to receive Compound 1 or placebo in addition to their stable background treatment (eg, corticosteroids, aminosalicylates, or CD-related antibiotics). The study will consist of 2 parts, with total treatment duration of 20 weeks. Randomization in Part 1 will be stratified according the subject's previous anti-TNF exposure/response, CRP level at Screening, and oral corticosteroid use at visit Day −1. After the first 10 weeks of treatment in Part 1, patients will be re-randomized for Part 2 as shown in the diagram below and will be stratified according to the subject's clinical response, previous anti-TNF exposure/response, and oral corticosteroid use at visit Day -1. [table] Within the CDAI score measurement parameters, the PRO2 score, based on the stool frequency (SF) and abdominal pain (AP) components of the CDAI, was also measured. The PRO2 score is calculated as follows: PRO2=7 x (mean daily number of liquid or very soft stools)+7×(mean daily abdominal pain score). This score provides a measurement of the symptoms improvement of the patient.

[2] = system: Subjects With Active Crohn's Disease With Evidence of Mucosal Ulceration; assay: Study 3 - Histopathology score; conditions: 200 mg, LOCF
From the text: Double-Blind, Randomized, Placebo-Controlled, Multi-Centre Study to Investigate the Efficacy and Safety of Compound 1 in Subjects With Active Crohn's Disease With Evidence of Mucosal Ulceration.
This is a double-blind, randomized, placebo-controlled, multi-centre Phase 2 study to investigate the efficacy and safety of Compound 1 administered once daily for the treatment of active CD with evidence of mucosal ulceration. The pharmacokinetics (including a PK substudy) and pharmacodynamics of Compound 1 and metabolite in CD will also be characterised.
A total of 180 eligible subjects will be randomized to receive Compound 1 or placebo in addition to their stable background treatment (eg, corticosteroids, aminosalicylates, or CD-related antibiotics). The study will consist of 2 parts, with total treatment duration of 20 weeks. Randomization in Part 1 will be stratified according the subject's previous anti-TNF exposure/response, CRP level at Screening, and oral corticosteroid use at visit Day −1.
After the first 10 weeks of treatment in Part 1, patients will be re-randomized for Part 2 as shown in the diagram below and will be stratified according to the subject's clinical response, previous anti-TNF exposure/response, and oral corticosteroid use at visit Day -1.
Histopathology data is collected from patients biopsy, and evaluated according to the procedure reported in D'haens et al., 1998.

[3] = system: Subjects With Active Crohn's Disease With Evidence of Mucosal Ulceration; assay: Study 3 - CRP levels (pharmacodynamics); conditions: 200 mg; week 10; LOCF
From the text: as §1, with “CRP determination is available at Quest Diagnostics, Clinical Trials, Quest House, 125-135 Staines Road, Hounslow, Middlesex, TW3 3JB, United Kingdom under Catalogue n#86140. The determination of CRP is made using Immunoturbidimetric assay for” for “Within”, “in vitro quantitative determination of CRP in human serum and plasma on Roche/Hitachi cobas c systems, wherein human CRP agglutinates with latex particles coated with monoclonal anti-CRP antibodies. The aggregates are determined turbidimetrically (Eda et al., 1998; Price et al., 1987). Human serum and plasma samples CRP determination was done on a Roche/Hitachi Cobas c 301 c 501/502 system which automatically calculate” for “CDAI score measurement parameters,”, “analyte concentration of each sample. Samples containing precipitates are centrifuged before performing” for “PRO2 score, based on”, “assay. CRP levels are determined” for “stool frequency (SF) and abdominal pain (AP) components of the CDAI, was also measured. The PRO2 score is calculated”, “previously described in section 3.6” for “follows: PRO2=7 x (mean daily number of liquid or very soft stools)+7×(mean daily abdominal pain score). This score provides a measurement of the symptoms improvement of the patient.”

[4] = Anti-TNF experienced non-responders
[5] = baseline corticosteroid use: with steroids
[6] = baseline corticosteroid use: without steroids

## O=C(Nc1nc2cccc(-c3ccc(CN4CCS(=O)(=O)CC4)cc3)n2n1)C1CC1 [Compound 1, cyclopropanecarboxylic acid {5-[4-(1,1-dioxo-thiomorpholin-4-ylmethyl)-phenyl]-[1,2,4]triazolo[1,5-a]pyridin-2-yl}-amide]
[1]; Baseline, LOCF
  PRO2 mean, baseline: 52.4
[1]; week 10, LOCF
  PRO2 mean CFB, W 10: −21.9
  PRO2 remission (PRO2 ≤ 28): 55%
  PRO2 response (mean daily number of liquid or very soft stools ≤ 3, mean daily abdominal pain ≤ 1): 38%
[1]; week 10, NRI
  PRO2 remission (PRO2 ≤ 28): 50%
  PRO2 response (mean daily number of liquid or very soft stools ≤ 3, mean daily abdominal pain ≤ 1): 34%
[2]; Anti-TNF Naïve
  Overall total score mean, % CFB at week 10: −14%
  Overall total score mean, CFB at week 10: −3.9
  Overall total score mean, baseline: 20.3
  Overall total score mean, week 10: 16.1
[2]; [4]
  Overall total score mean, % CFB at week 10: −7%
  Overall total score mean, CFB at week 10: −3.2
  Overall total score mean, baseline: 25.0
  Overall total score mean, week 10: 21.6
[2]; [5]
  Overall total score mean, % CFB at week 10: −15%
  Overall total score mean, CFB at week 10: −4.3
  Overall total score mean, baseline: 24.9
  Overall total score mean, week 10: 20.3
[2]; [6]
  Overall total score mean, % CFB at week 10: −5%
  Overall total score mean, CFB at week 10: −2.7
  Overall total score mean, baseline: 20.7
  Overall total score mean, week 10: 17.9
[2]; overall
  Overall total score mean, % CFB at week 10: −10%
  Overall total score mean, CFB at week 10: −3.5
  Overall total score mean, baseline: 22.8
  Overall total score mean, week 10: 19.1
[2]; screening CRP ≤ 10 ml/L
  Overall total score mean, % CFB at week 10: −20%
  Overall total score mean, CFB at week 10: −4.8
  Overall total score mean, baseline: 21.8
  Overall total score mean, week 10: 17.1
[2]; screening CRP ≥ 10 mg/L
  Overall total score mean, % CFB at week 10: 4%
  Overall total score mean, CFB at week 10: −1.8
  Overall total score mean, baseline: 24.3
  Overall total score mean, week 10: 21.8
[3]
  Serum CRP mean, % CFB: 53%
  Serum CRP mean, CFB: -1.0 mg/L
  Serum CRP median, % CFB: −10%
  Serum CRP median, CFB: -0.4 mg/L
  Serum CRP normalizing high to normal (<0.80 mg/dL), % subjects normalizing: 27%
